# Legend:
# α-galactosidase (GLA) = target: T1, α-galactosidase (GLA) (Homo sapiens, UniProt P06280); experiment: Mapping of FFF probe-modified peptides on α-galactosidase (GLA); format: binding
# T1 construct: endogenous in cells; host or cells: human cells (HEK293T; a subset of probes also in K562)
# T1 sequence (P06280 32-429): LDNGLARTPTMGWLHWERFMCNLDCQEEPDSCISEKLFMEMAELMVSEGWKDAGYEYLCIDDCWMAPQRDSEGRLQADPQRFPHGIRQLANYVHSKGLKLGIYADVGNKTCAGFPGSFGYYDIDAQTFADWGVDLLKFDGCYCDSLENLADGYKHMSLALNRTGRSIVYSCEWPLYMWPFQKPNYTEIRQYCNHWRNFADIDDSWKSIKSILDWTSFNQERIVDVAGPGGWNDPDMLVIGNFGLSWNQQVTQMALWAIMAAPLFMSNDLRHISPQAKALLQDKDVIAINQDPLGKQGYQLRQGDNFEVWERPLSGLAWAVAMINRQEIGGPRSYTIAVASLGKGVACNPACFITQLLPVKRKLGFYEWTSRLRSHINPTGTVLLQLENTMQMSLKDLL
# Experimental: (§1) Preparation and analysis was adapted from methods previously reported. In brief, for global mapping of fragment probe-modified peptides, separate 10 cm dishes of cells were treated with probes (200-250 μM) in 3.0 mL of DMEM (serum-free) and (if applicable) competitor ligands, proteomes harvested and subjected to click chemistry conditions with either light or heavy isotopically labeled biotin-TEV-azide (10 μL of 5 mM stocks in DMSO, final concentration=100 μM), TCEP, ligand and CuSO4 as detailed above. The samples were allowed to react for 1 h at which point the samples were centrifuged (16,000 g, 5 min, 4° C.). The resulting pellets were sonicated in ice-cold methanol (500 μL) and the resuspended light- and heavy-labeled samples were then combined and centrifuged (16,000 g, 5 min, 4° C.). The pellets were then solubilized in PBS containing 1.2% SDS (1 mL) with sonication and heating (5 min, 95° C.). Samples were transferred to falcon tubes containing DPBS (5 mL), to which a 100 μL of streptavidin-agarose beads slurry was added. After incubation, the beads (3 hr) were pelleted by centrifugation (1,400 g, 3 min) and were washed (2×10 mL PBS and 2×10 mL water). The beads were transferred to eppendorf tubes with 1 mL DPBS, centrifuged (1,400 g, 3 min), and resuspended in PBS containing 6 M urea. To this was added 10 mM DTT (25 μL of a 200 mM stock in water) and the beads were incubated at 65° C. for 15 mins. 20 mM iodoacetamide (25 μL of a 400 mM stock in water) was then added and allowed to react at 37° C. for 30 mins with shaking. The bead mixture was diluted with 900 μL PBS, pelleted by centrifugation (1,400 g, 3 min), and resuspended in 200 μL 2M urea (DPBS) containing trypsin and CaCl2 as described above. The beads were separated from the digest by centrifugation (1,000 g, 1 min), washed (2×1 mL PBS and 2×1 mL water) and then transferred to fresh eppendorfs with 1 mL water. The washed beads were washed once further in 150 μL TEV buffer (50 mM Tris, pH 8, 0.5 mM EDTA, 1 mM DTT) by centrifugation (1,400 g, 3 min) and the resuspended in 150 μL TEV buffer. 5 μL TEV protease (80 μM) was added and the reactions were rotated overnight at 29° C. The TEV digest was separated from the beads by centrifugation (1,400 g, 3 min) and the beads were washed once with water (100 μL). The samples were then acidified to a final concentration of 5% (v/v) formic acid and stored at −80° C. prior to analysis.
# The resulting probe-modified peptides were collected for MS analysis, which was performed as described above with differences in the salt bumps applied in the chromatographic gradients which in this case were 0%, 30%, 60%, 90% and 100% NH4OAc (500 μM). […] The isoTOP ratios for probe labeled peptides were quantified using the in-house software CIMAGE. […]
# [1] = system: proteins in HEK293T cells; experiment: MS-based mapping of FFF probe-modified peptides (isoTOP, sites of labeling); format: binding, human
# Experimental: as §1
# The resulting probe-modified peptides were collected for MS analysis, which was performed as described above with differences in the salt bumps applied in the chromatographic gradients which in this case were 0%, 30%, 60%, 90% and 100% NH4OAc (500 μM). The protein identification searches of the MS data were performed with the following changes applied to identify the peptides modified with the corresponding fragment probe and the cleaved TEV tag. All amino acids were considered as possible residues for modification. To facilitate the computational searches, sets of up to 3 amino acids were searched using ProLuCID and filtered with DTASelect as described above. […] The isoTOP ratios for probe labeled peptides were quantified using the in-house software CIMAGE.
# For each protein in the site-of-labeling dataset, the UniProtKB accession number was used to map and collect relevant structures from the RCSB Protein Data Bank (PDB) fulfilling the following criteria: structures determined by X-ray crystallography, wild-type protein, Homo sapiens as the sole source organism. […] Fpocket 2.0 was used to detect potential binding pockets for the resultant structures with all parameters set at recommended default. Pockets with volume less than 500 Å^3 were removed from output prior to further analysis. Residues surrounding fpocket predicted binding pockets for each protein were collected to determine the number of residues overlapping with isoTOP peptides.
# [2] = protein PSMD11 26S proteasome non-ATPase regulatory subunit 11 (O00231)
structure (smiles),measurement,setting,value
"C#CCCC1(CCC(=O)NCc2ccc3sccc3c2)N=N1 [probe 4, N-(Benzo[b]thiophen-5-ylmethyl)-3-(3-(but-3-yn-1-yl)-3H-diazirin-3-yl)propanamide]",Labeled Peptide of GLA Alpha-galactosidase A,"α-galactosidase (GLA); Accession P06280, residues of probe-labeled peptide, family Enzymes",68-82
same,Labeled Peptide,α-galactosidase (GLA); P06280 GLA Alpha-galactosidase A,68-82
same,Labeled Peptide,"α-galactosidase (GLA); protein GLA Alpha-galactosidase A, residues of probe-labeled peptide",68-82
same,Labeled Peptide of HCCS Cytochrome c-type heme lyase,"[1]; Accession P53701, residues of probe-labeled peptide, family Enzymes",200-210
same,Labeled Peptide,"[1]; HNRNPK Heterogeneous nuclear ribonucleoprotein K, residues of probe-modified peptide",423-433
same,Labeled Peptide,"[1]; IDE Insulin-degrading enzyme, residues of probe-modified peptide",312-324
same,Labeled Peptide,"[1]; NUP93 (Q8N1F7), residues of the probe-labeled peptide",539-545
same,Labeled Peptide,[1]; P07195 LDHB L-lactate,234-244
same,Labeled Peptide,"[1]; P22830 FECH Fen-ochelatase, mitochondrial",254-272
same,Labeled Peptide,"[1]; protein BCAS2 (O75934), residues of probe-labeled peptide",137-151
same,Labeled Peptide,"[1]; protein CPT2 Carnitine O-palmitoyltransferase 2, mitochondrial (P23786), residues of probe-labeled peptide",478-495
same,Labeled Peptide,"[1]; protein EMD Emerin (P50402), residues of probe-labeled peptide",212-221
same,Labeled Peptide,"[1]; protein FECH Ferrochelatase, mitochondrial (P22830), residues of probe-labeled peptide",254-272
same,Labeled Peptide,"[1]; protein FECH Ferrochelatase, mitochondrial, residues of probe-labeled peptide",254-272
same,Labeled Peptide,"[1]; protein LDHB L-lactate dehydrogenase B chain, residues of the probe-labeled peptide",234-244
same,Labeled Peptide,"[1]; protein P42166 TMPO Lamina-associated polypeptide 2, isoform alpha",621-637
same,Labeled Peptide,[1]; protein PGRMC2 Membrane-associated progesterone receptor component (O15173),136-149
same,Labeled Peptide,[1]; [2],298-304
same,Labeled Peptide,[1]; protein Q14166 TTLL12,254-287
same,Labeled Peptide,"[1]; residues of probe-labeled peptide on TUBB6 Tubulin beta-6 chain, Accession # Q9BUF5",217-241
"C#CCCC1(CCC(=O)NC2N=C(c3ccccc3)c3ccccc3NC2=O)N=N1 (stereo not shown) [probe 2, 3-(3-(But-3-yn-1-yl)-3H-diazirin-3-yl)-N-(2-oxo-5-phenyl-2,3-dihydro-1H-benzo[e][1,4]diazepin-3-yl)propanamide]",Labeled Peptide of GSTP1 Glutathione S-transferase P,"[1]; Accession P09211, residues of probe-labeled peptide, family Enzymes",56-71
same,Labeled Peptide of HNRNPH3 Heterogeneous nuclear ribonucleoprotein H3,"[1]; Accession P31942, residues of probe-labeled peptide, family Transcription factors, Regulators",324-343
same,Labeled Peptide of FUS RNA-binding protein FUS,"[1]; Accession P35637, residues of probe-labeled peptide, family Transcription factors, Regulators",335-348
same,Labeled Peptide,"[1]; GSTP1 Glutathione S-transferase P, residues of probe-modified peptide",56-71
same,Labeled Peptide,"[1]; HNRNPL Heterogeneous nuclear ribonucleoprotein L, residues of probe-modified peptide",399-411
same,Labeled Peptide,"[1]; MESDC2 LDLR chaperone MESD (Q14696), residues of the probe-labeled peptide",113-127
same,Labeled Peptide,"[1]; NOC2L (Q9Y3T9), residues of the probe-labeled peptide",591-606
same,Labeled Peptide,[1]; P09211 GSTP1 Glutathione S-transferase P,56-71
same,Labeled Peptide (residues) of PPP1CC Serine/threonine-protein phosphatase PP1-gamma cat,"[1]; P36873, peptide IYGFYDECK, PDB 4UT2",133-141
same,Labeled Peptide,[1]; P55263 ADK Adenosine kinase,209-224
same,Labeled Peptide (residues) of PPP1CA Serine/threonine-protein phosphatase PP1-alpha cat,"[1]; P62136, peptide IYGFYDECK, PDB 4XPN",133-141
same,Labeled Peptide,"[1]; protein ADK (P55263), residues of probe-labeled peptide",209-224
same,Labeled Peptide,"[1]; protein ADK Adenosine kinase, residues of probe-labeled peptide",209-224
same,Labeled Peptide,"[1]; protein BSG Basigin (P35613), residues of probe-labeled peptide",228-243
same,Labeled Peptide,"[1]; protein CLPTM1 Cleft lip and palate transmembrane protein 1 (O96005), residues of probe-labeled peptide",548-562
same,Labeled Peptide,"[1]; protein EIF3E Eukaryotic translation initiation factor 3 submit (P60228), residues of probe-labeled peptide",173-191
same,Labeled Peptide,"[1]; protein EIF3H Eukaryotic translation initiation factor 3 submit (O15372), residues of probe-labeled peptide",207-220
same,Labeled Peptide,"[1]; protein EQSR1 RNA-binding protein EWS (Q01844), residues of probe-labeled peptide",269-292
same,Labeled Peptide,"[1]; protein FARSB Phenylalanine--tRNA ligase beta subunit, residues of probe-labeled peptide",518-530
same,Labeled Peptide,"[1]; protein FARSB Phenylalanini--tRNA ligase beta subunit (Q9NSD9), residues of probe-labeled peptide",518-530
same,Labeled Peptide,[1]; protein P62917 RPL8 60S ribosomal protein L8,129-144
same,Labeled Peptide,[1]; protein PFDN5 Prefoldin subunit 5 (Q99471),20-37
same,Labeled Peptide,"[1]; protein PPP1CA Serine/threonine-protein phosphatase PP1-alpha cat, residues of the probe-labeled peptide",133-141
same,Labeled Peptide,[1]; protein PPP1CA Serine/threonine-protein phosphate PP1-alpha cat (P62136),133-141
same,Labeled Peptide,[1]; protein PPP1CB Serine/threonine-protein phosphate PP1-alpha cat (P62140),132-140
same,Labeled Peptide,"[1]; protein PPP1CC Serine/threonine-protein phosphatase PP1-gamma cat, residues of the probe-labeled peptide",133-141
same,Labeled Peptide,[1]; protein PPP1CC Serine/threonine-protein phosphate PP1-gamma cat (P36873),133-141
same,Labeled Peptide,[1]; protein PSMA2 Proteasome subunit alpha type-2 (P25787),144-159
same,Labeled Peptide,"[1]; protein PSMA2 Proteasome subunit alpha type-2, residues of the probe-labeled peptide",144-159
same,Labeled Peptide,[1]; [2],164-175
same,Labeled Peptide,"[1]; protein PTCD3 Pentatricopeptide repeat-containing protein 3, mit (Q96EY7)",119-126
same,Labeled Peptide,[1]; protein Q6NUK1 SCLC25A24 Calcium-binding mitochondrial carrier protein SCaM,454-469
same,Labeled Peptide,[1]; protein Q15631 TSN Translin,205-215
same,Labeled Peptide,[1]; protein Q92804 TAF15 TATA-binding protein-associated factor 2N,284-297
same,Labeled Peptide,[1]; protein QKI Protein quaking (Q96PU8),192-205
same,Labeled Peptide,"[1]; protein RUVBL1 RuvB-like 1, residues of the probe-labeled peptide",318-333
same,Labeled Peptide,"[1]; protein RUVBL1 RuvB-like 1, residues of the probe-modified peptide",91-107
same,Labeled Peptide,"[1]; protein TSN Translin, residues of the probe-modified peptide",205-215
